{"source": "patent US8288430B2", "about": "“Spiro(5.5)undecane derivatives” (Grunenthal GmbH, priority 2008, dated 2012)", "key": {"hERG ion channel": {"target": "hERG ion channel (Homo sapiens, UniProt Q12809)", "sequence (Q12809 whole entry)": "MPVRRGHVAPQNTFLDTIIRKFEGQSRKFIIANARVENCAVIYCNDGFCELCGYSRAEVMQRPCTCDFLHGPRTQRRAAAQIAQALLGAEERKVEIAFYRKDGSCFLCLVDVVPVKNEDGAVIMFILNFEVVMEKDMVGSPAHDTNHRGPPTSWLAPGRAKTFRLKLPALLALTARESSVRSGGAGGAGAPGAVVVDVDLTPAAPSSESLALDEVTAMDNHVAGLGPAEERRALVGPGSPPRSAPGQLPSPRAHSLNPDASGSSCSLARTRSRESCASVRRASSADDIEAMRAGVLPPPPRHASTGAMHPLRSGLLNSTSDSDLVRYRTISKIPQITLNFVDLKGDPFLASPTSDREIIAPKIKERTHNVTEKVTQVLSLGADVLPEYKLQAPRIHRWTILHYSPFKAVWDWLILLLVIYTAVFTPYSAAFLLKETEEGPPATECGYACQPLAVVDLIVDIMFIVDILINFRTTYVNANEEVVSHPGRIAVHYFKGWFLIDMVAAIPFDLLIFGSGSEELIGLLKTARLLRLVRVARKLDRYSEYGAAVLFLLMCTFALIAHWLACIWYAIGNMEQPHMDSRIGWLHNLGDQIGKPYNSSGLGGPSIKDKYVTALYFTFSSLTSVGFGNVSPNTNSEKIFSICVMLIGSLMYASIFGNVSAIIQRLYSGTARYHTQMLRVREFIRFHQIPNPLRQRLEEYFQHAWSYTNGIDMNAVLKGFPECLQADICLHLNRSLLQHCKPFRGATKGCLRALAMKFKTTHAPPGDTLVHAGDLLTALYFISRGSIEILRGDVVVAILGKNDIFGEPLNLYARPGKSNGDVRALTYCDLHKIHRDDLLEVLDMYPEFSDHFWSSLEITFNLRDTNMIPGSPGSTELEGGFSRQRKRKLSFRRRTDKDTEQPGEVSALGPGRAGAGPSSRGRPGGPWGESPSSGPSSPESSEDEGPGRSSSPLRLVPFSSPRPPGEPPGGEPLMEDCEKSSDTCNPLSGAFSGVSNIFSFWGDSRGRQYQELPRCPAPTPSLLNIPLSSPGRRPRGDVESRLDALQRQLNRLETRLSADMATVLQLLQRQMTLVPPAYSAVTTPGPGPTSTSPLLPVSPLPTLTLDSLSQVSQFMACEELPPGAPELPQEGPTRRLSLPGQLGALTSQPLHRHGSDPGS", "test": "hERG K+ channel binding assay, displacement of [3H] dofetilide", "settings": "for Ki (hERG) column, value given as % (1 μM): test concentration 1 μM"}, "[1]": {"system": "Sprague Dawley rats (mechanical allodynia after spinal nerve ligature)", "test": "Chung model: mononeuropathic pain after spinal nerve ligature (SNL)", "format": "in vivo", "settings": "at 5 μg/kg"}}, "data": [{"compound": "CN(C)C1(c2ccccc2)CCC2(CC1)NCCc1c2[nH]c2ccccc12", "note": "(single isomer, unassigned) [C-1, reference compound]", "values": [{"measurement": "Ki (hERG) column, value given as % (1 μM)", "setting": "hERG ion channel", "value": "19% (1 μM)"}]}, {"compound": "CN(C)C1(c2ccccc2)CCC2(CCCc3c2[nH]c2ccccc32)CC1", "note": "(single isomer, unassigned) [Ex. 2, N,N-dimethyl-4′-phenyl-2,3,4,9-tetrahydrospiro[carbazole-1,1′-cyclohexane]-4′-amine]", "values": [{"measurement": "SNL Rat, i.v.", "setting": "[1]", "value": 19, "unit": "% MPE"}, {"measurement": "Ki (hERG) Mean [μM]", "setting": "hERG ion channel", "value": "n.e."}]}, {"compound": "CN(C)C1(c2ccccc2)CCC2(CC1)NCCc1c2[nH]c2ccccc12", "note": "(single isomer, unassigned) [C-2, reference compound]", "values": [{"measurement": "Ki", "setting": "hERG ion channel", "value": 490, "unit": "nM"}]}, {"compound": "CN(C)C1(Cc2ccccc2)CCC2(CCCc3c2[nH]c2ccccc32)CC1", "note": "(stereo not drawn)", "values": [{"measurement": "melting point", "value": "174 to 186", "unit": "°C"}]}, {"compound": "CN(C)C1(c2ccccc2)CCC2(CCCc3c2[nH]c2ccccc32)CC1", "note": "(single isomer, unassigned) [Ex. 1, N,N-dimethyl-4′-phenyl-2,3,4,9-tetrahydrospiro[carbazole-1,1′-cyclohexane]-4′-amine]", "values": [{"measurement": "Ki (hERG) column, value given as % (1 μM)", "setting": "hERG ion channel", "value": "13% (1 μM)"}]}]}
